Measured values reported in publication PMC12223310, “Mining the heparinome for cryptic antimicrobial peptides that selectively kill Gram-negative bacteria” (Molecular Systems Biology, 2025).
Values after ≈ are worked out from the molar mass of the structure shown. Read-outs that look alike come from different tables or passages of the source. Ends that are not written are not given here.

Experiments:
Escherichia coli = format: cell-based, Escherichia coli BW25113
Method: (§1) Antimicrobial activities were determined by the microtiter broth dilution method recommended by the National Committee of Laboratory Safety and Standards (NCLSS), adapted for AMPs (Wiegand et al, [2008]). Briefly, overnight bacterial cell cultures were brought to an exponential growth state (OD600 = 0.4) in MH broth and diluted to a final concentration of 5 × 10^5 CFU/mL. In all, 1:2 peptide serial dilutions were prepared in 96-well polypropylene plates (Greiner, Frickenhausen, Germany), in MH medium containing 0.2% (w/v) of bovine serum albumin (BSA) and 0.02% glacial acetic acid. […] The lowest concentration with no colonies was taken as MBC. The results are the average of three independent studies.

Acinetobacter baumannii = format: cell-based, Acinetobacter baumannii ATCC 15308
Method: as §1

[1] = system: Pseudomonas sp (Pseudomonas aeruginosa); format: cell-based, Pseudomonas aeruginosa ATCC 15915
Method: as §1

Staphylococcus aureus = format: cell-based, Staphylococcus aureus ATCC 12600
Method: as §1

Listeria monocytogenes = format: cell-based, Listeria monocytogenes ATCC 19112
Method: as §1

Enterococcus faecium = format: cell-based, Enterococcus faecium ATCC 19434
Method: as §1

A. baumannii 3878 = format: cell-based
Method: as §1

A. baumannii 3880 = format: cell-based
Method: as §1

E. coli 1166795 = format: cell-based
Method: as §1

E. coli CFT073 = format: cell-based
Method: as §1

P. aeruginosa 827632 = format: cell-based
Method: as §1

P. aeruginosa 827651 = format: cell-based
Method: as §1

in vitro = format: cell-based; details: human, MRC-5 cells
Method: (§2) Toxicity in MRC-5 and HepG2 cells was tested by the MTT assay, as described (Bello-Madruga et al, [2023]). Cell lines were maintained in Eagle’s minimum essential medium (MEMα) supplemented with 10% fetal bovine serum (FBS). Cells were cultured in 75-cm^2 flasks and then transferred to polystyrene 96-well plates, at 3 × 10^4 cells per well, and incubated overnight for attachment to the well surface. Then culture media was removed and 1:2 peptide serial dilutions in MEMα were added to each well and later incubated for 4 h. After incubation, peptides were removed and 100 μL of 0.5 mg/mL MTT staining solution in MEMα supplemented with 10% FBS was added to cells and incubated for 1.5 h at 37 °C. Formazan crystals in living cells were detected after disruption with 200 μL dimethyl sulfoxide and then absorbance was measured at 570 nm in a Tecan Spark instrument (Tecan, Männedorf, Switzerland). The results are the average of three independent studies.

Cytotoxicity, MTT assay = format: cell-based; details: human, HepG2 cells, 4 h peptide incubation in MEMα, average of three studies, read-out: LC50 (HepG2 cells)
Method: as §2

horse erythrocytes = format: cell-based
Method: Peptide toxicity was tested on horse erythrocytes (Sandín et al, [2021]). Horse defibrinated blood was washed three times in phosphate buffer saline (PBS) pH 7.2 by centrifugation at 3× 3000 rpm for 10 min, to remove excess hemoglobin in the supernatant and then diluted tenfold in PBS. Next, 50 μL of erythrocytes were added to a 1.5 mL polypropylene tube and incubated with 50 μL of a 1:2 peptide serial dilution in PBS. An erythrocyte disruption (ED) control was prepared by adding 50 μL of 0.1% TritonX-100 in PBS instead of the peptides and an intact erythrocyte (IC) control by adding 50 μL of PBS alone. All samples and controls were incubated for 2 h at 37 °C. Samples were centrifuged at 3000 rpm for 3 min, and the supernatants were transferred to a polystyrene 96-well plate and inspected for ED by reading the absorbance at 540 nm in a Tecan Spark instrument (Tecan, Männedorf, Switzerland). The results are the average of three independent studies. The hemolysis percentage was calculated as: Hemolysis%=Sample−IC/ED−IC×100

| Compound | MIC E. coli (Escherichia coli) | MIC A. baumannii (Acinetobacter baumannii) | MIC Pseudomonas sp [1] | MIC S. aureus (Staphylococcus aureus) | MIC L. monocytogenes (Listeria monocytogenes) | MBC E. coli (Escherichia coli) | MBC A. baumannii (Acinetobacter baumannii) | MBC Pseudomonas sp [1] | MBC S. aureus (Staphylococcus aureus) | MBC E. faecium (Enterococcus faecium) | MIC E. faecium (Enterococcus faecium) | MBC L. monocytogenes (Listeria monocytogenes) | MBC A. baumannii 3878 (A. baumannii 3878) | MIC A. baumannii 3878 (A. baumannii 3878) | MBC A. baumannii 3880 (A. baumannii 3880) | MIC A. baumannii 3880 (A. baumannii 3880) | MBC E. coli 1166795 (E. coli 1166795) | MIC E. coli 1166795 (E. coli 1166795) | CC50 at 4 h (in vitro) | CC50 at 4 h (Cytotoxicity, MTT assay) | further results |
| --- | --- | --- | --- | --- | --- | --- | --- | --- | --- | --- | --- | --- | --- | --- | --- | --- | --- | --- | --- | --- | --- |
| HNLFRKLTHQLFRRNFGYTLRSV-NH2 [Peptide R10] | 0.4 µM | 0.4 µM | 0.8 µM | 6.3 µM | 1.6 µM | – | – | – | – | – | – | – | – | – | – | – | – | – | – | – | – |
| GWKDKKSYRWFLQHRPQVGYIRVRFY-NH2 [HBP-4] | 0.2 µM | 0.8 µM | 0.8 µM | 3.1 µM | 1.6 µM | 0.2 µM | 0.8 µM | 0.8 µM | 12.5 µM | 50 µM | 12.5 µM | 3.1 µM | 0.8 µM | 0.8 µM | 1.6 µM | 1.6 µM | < 0.1 µM | < 0.1 µM | 35 µM | 38 µM | MBC E. coli CFT073 (E. coli CFT073): 1.6 µM; MIC E. coli CFT073 (E. coli CFT073): 0.8 µM; MBC P. aeruginosa 827632 (P. aeruginosa 827632): 6.3 µM; MIC P. aeruginosa 827632 (P. aeruginosa 827632): 6.3 µM; MBC P. aeruginosa 827651 (P. aeruginosa 827651): 6.3 µM; MIC P. aeruginosa 827651 (P. aeruginosa 827651): 3.1 µM |
| HNLFRKLTHRLFRRNFGYTL-NH2 [HBP-5 [1–20]] | 0.4 µM | 0.4 µM | 0.4 µM | 6.3 µM | 1.6 µM | – | – | – | – | – | – | – | – | – | – | – | – | – | 63 ± 1 µM | – | Hemolysis (250 µM peptide) (horse erythrocytes): 24 ± 2 |
| CC[C@H](C)[C@H](NC(=O)[C@H](CCCCN)NC(=O)[C@H](CCC(=O)O)NC(=O)[C@H](CCCCN)NC(=O)[C@H](CO)NC(=O)[C@H](CCCCN)NC(=O)[C@H](CCCNC(=N)N)NC(=O)[C@H](Cc1ccccc1)NC(=O)[C@H](Cc1ccccc1)NC(=O)[C@H](CC(=O)O)NC(=O)CNC(=O)[C@H](CC(C)C)NC(=O)[C@@H](N)CC(C)C)C(=O)NCC(=O)N[C@@H](CCCCN)C(=O)N[C@@H](CCC(=O)O)C(=O)N[C@@H](Cc1ccccc1)C(=O)N[C@@H](CCCCN)C(=O)N[C@@H](CCCNC(=N)N)C(=O)N[C@H](C(=O)N[C@H](C(=O)N[C@@H](CCC(N)=O)C(=O)N[C@@H](CCCNC(=N)N)C(=O)N[C@H](C(=O)N[C@@H](CCCCN)C(=O)N[C@@H](CC(=O)O)C(=O)N[C@@H](Cc1ccccc1)C(=O)N[C@@H](CC(C)C)C(=O)N[C@@H](CCCNC(=N)N)C(=O)N[C@@H](CC(N)=O)C(=O)N[C@@H](CC(C)C)C(=O)N[C@H](C(=O)N1CCC[C@H]1C(=O)N[C@@H](CCCNC(=N)N)C(=O)N[C@H](C(=O)N[C@@H](CCC(=O)O)C(=O)N[C@@H](CO)C(N)=O)[C@@H](C)O)C(C)C)[C@@H](C)CC)C(C)C)[C@@H](C)CC [LL-37, reference compound] | – | 6.3 µM (≈ 28.3 µg/mL) | 0.8 µM (≈ 3.59 µg/mL) | 25 µM (≈ 112 µg/mL) | 0.8 µM (≈ 3.59 µg/mL) | – | 6.3 µM (≈ 28.3 µg/mL) | 0.8 µM (≈ 3.59 µg/mL) | 25 µM (≈ 112 µg/mL) | 3.1 µM (≈ 13.9 µg/mL) | 0.8 µM (≈ 3.59 µg/mL) | 3.1 µM (≈ 13.9 µg/mL) | – | – | – | – | – | – | – | 53 µM | MBC E. coli (Escherichia coli; MIC wells plated on LB agar, overnight 37 °C, no colonies, average of three studies): 3.1 µM (≈ 13.9 µg/mL); MIC E. coli (Escherichia coli; microtiter broth dilution, MH broth, 5 × 10^5 CFU/mL, overnight 37 °C, average of three studies): 1.6 µM (≈ 7.19 µg/mL); CC50 at 4 h (in vitro; MTT, 4 h peptide incubation in MEMα, average of three studies, read-out: LC50 (MRC-5 cells)): 26 µM |
| RWHLTHRPKTGYIRVLVH-NH2 [HBP-1] | 1.6 µM | 1.6 µM | 3.1 µM | 50 µM | 6.3 µM | 1.6 µM | 1.6 µM | 3.1 µM | > 100 µM | ≥100/ > 100 µM | ≥100/ > 100 µM | 12.5 µM | 1.6 µM | 1.6 µM | 12.5 µM | 12.5 µM | 1.6 µM | 1.6 µM | > 200 µM | > 200 µM | MBC E. coli CFT073 (E. coli CFT073): 3.1 µM; MIC E. coli CFT073 (E. coli CFT073): 3.1 µM; MBC P. aeruginosa 827632 (P. aeruginosa 827632): 25 µM; MIC P. aeruginosa 827632 (P. aeruginosa 827632): 25 µM; MBC P. aeruginosa 827651 (P. aeruginosa 827651): 50 µM; MIC P. aeruginosa 827651 (P. aeruginosa 827651): 25 µM |
| HNLFRKLTAALFRANFGYTLRSV-NH2 [ΔCPC’] | 1.6 µM | 1.6 µM | 1.6 µM | 6.3 µM | 3.1 µM | – | – | – | – | – | – | – | – | – | – | – | – | – | – | – | – |
| HNLFRKLTHRLFRQNFGYTLRSV-NH2 [Peptide R14] | 0.4 µM | 0.4 µM | 0.4 µM | 6.3 µM | 3.1 µM | – | – | – | – | – | – | – | – | – | – | – | – | – | – | – | – |
| RFYLSKKKWVMVP-NH2 [HBP-2] | 12.5 µM | 50 µM | 25 µM | >100/ > 100 µM | 37.5 µM | 25 µM | 50 µM | 50 µM | >100/ > 100 µM | >100/ > 100 µM | >100/ > 100 µM | > 100 µM | 50 µM | 50 µM | > 50 µM | > 50 µM | 12.5 µM | 12.5 µM | > 200 µM | > 200 µM | MBC E. coli CFT073 (E. coli CFT073): 100 µM; MIC E. coli CFT073 (E. coli CFT073): 50 µM; MBC P. aeruginosa 827632 (P. aeruginosa 827632): > 100 µM; MIC P. aeruginosa 827632 (P. aeruginosa 827632): > 100 µM; MBC P. aeruginosa 827651 (P. aeruginosa 827651): > 100 µM; MIC P. aeruginosa 827651 (P. aeruginosa 827651): > 100 µM |
| FRFKRKLPKYLLF-NH2 [HBP-3] | 3.1 µM | 0.8 µM | 6.3 µM | 25 µM | 6.3 µM | 3.1 µM | 0.8 µM | 6.3 µM | 50 µM | >100/ > 100 µM | >100/ > 100 µM | 12.5 µM | 6.3 µM | 6.3 µM | 6.3 µM | 6.3 µM | 1.6 µM | 1.6 µM | > 200 µM | > 200 µM | MBC E. coli CFT073 (E. coli CFT073): 25 µM; MIC E. coli CFT073 (E. coli CFT073): 12.5 µM; MBC P. aeruginosa 827632 (P. aeruginosa 827632): 25 µM; MIC P. aeruginosa 827632 (P. aeruginosa 827632): 25 µM; MBC P. aeruginosa 827651 (P. aeruginosa 827651): 12.5 µM; MIC P. aeruginosa 827651 (P. aeruginosa 827651): 12.5 µM |
